Test [1] concerns MRC-5 normal lung fibroblasts. In words: Antiproliferative activity, SRB assay. Type of test: cell-based, human. The protocol:
(§1) The antiproliferative activity against human A549 lung, IGROV-1 ovarian, and HeLa cervical cancer cell lines and MRC5 normal lung fibroblasts was determined by the sulforhodamine B (SRB) assay. […] IGROV-1 is known to be cisplatin-sensitive and subject to hypermutation.
(§2) 2.8 Mammalian cell culture
(§3) The human ovarian cancer cell line, IGROV-1; the human cervical cancer cell line, HeLa; the human […]; and the human non-cancerous lung fibroblast cell line, MRC5 were cultured in DMEM supplemented with 10% FBS and 100 units/mL of penicillin and 100 µg/mL of streptomycin (1x pen/strep). All cell lines were incubated at 310 K with 5% CO2 and 95% humidity for routine maintenance and during drug treatment.
(§4) 2.9 Sulforhodamine (SRB) cytotoxicity assay
(§5) Cells were seeded at 5 × 10^3 cells per well and incubated at 310 K for 48 h. Stock solutions (200 µM) of the complexes were prepared by dissolving the compound in 5% (v/v) DMSO followed by dilution with DMEM and serial dilutions with DMEM were prepared (0.1 µM-200 The cells were exposed to the drug for 24 h. The drug was then removed, and cells were allowed to recover for 72 h, in drug-free media. Cell viability was then determined by the SRB colorimetric assay. The solubilised dye absorbance was analysed on a microplate reader (Thermo Scientific Multiskan FC with Scanit software 4.1) at 470 nm. Data were normalized using Microsoft Excel, and dose-response curves fitted using Origin 2016. The IC50 values
(The SRB assay estimates cell density from bound dye.)

The subject of test [2] is IGROV-1 ovarian carcinoma cells. In words: Antiproliferative activity, SRB assay. It counts as cell-based, human. Here is the method: as §1, §2, §3, §4, §5

“Also recorded” adds a separate entry of the source.

Take [(p-cymene)Os(L-BSO)Cl] [Os-LBSO]: the “Activity toward normal lung cells” value in test [1] (MRC-5, SRB) was “highly active; also recorded: some activity”. The IC50 (usually the midpoint of a concentration-inhibition curve) came out at 11.8 ± 0.6 µM in test [1] (MRC-5, SRB assay, 24 h treatment, 72 h recovery) and 14.6 ± 0.5 µM in test [2] (IGROV-1, SRB assay, 24 h treatment, 72 h recovery). Further, in test [2] (IGROV-1, SRB), the “Activity against IGROV-1” value is reported as “active”.

(Values after PMC12728982, “Multichiral Half-Sandwich Ru(II) and Os(II) Anticancer Complexes Containing a Glutathione Synthesis Inhibitor” (Organometallics, 2025).)
